Assays:
Type in all cases: in vivo
[1] = system: Beet Armyworm (Spodoptera exigua, LAPHEG); assay: Bioassay on Beet Armyworm (BAW), 128-well diet tray assay; details: 168 h, 50 μg/cm^2 on artificial diet, second instar larvae, 25° C., five to seven days, average of eight wells, read-out: BAW % Control (or Mortality) rating
Procedure, shortened: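 Second-instar larvae, one to five per well, placed on artificial diet surface-treated with 50 μg/cm^2 compound applied in 90:10 acetone-water and dried. Held 5–7 days at 25° C., 14:10 light-dark. Percent mortality recorded per well and averaged over eight wells.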

[2] = system: Cabbage Looper (Trichoplusia ni, TRIPNI); assay: Bioassay on Cabbage Looper (CL), 128-well diet tray assay; details: 168 h, 50 μg/cm^2 on artificial diet, second instar larvae, 25° C., five to seven days, average of eight wells, read-out: CL % Control (or Mortality) rating
Procedure, shortened: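 Second-instar larvae, one to five per well, were placed on artificial diet surface-treated with 50 μg/cm^2 test molecule applied in 90:10 acetone-water and dried, eight wells per molecule. Trays were covered, vented and held at 25° C., 14:10 light-dark for five to seven days; percent mortality per well was averaged.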

[3] = system: Green Peach Aphid (Myzus persicae, MYZUPE); assay: Bioassay on Green Peach Aphid (GPA), foliar spray on cabbage seedlings; details: 72 h, 200 ppm foliar spray on cabbage seedlings, three days, Abbott corrected % control, read-out: GPA % Control (or Mortality) rating
Experimental: Certain molecules disclosed in this document were tested against GPA using procedures described in the following example. In the reporting of the results, the “GPA & YFM Rating Table” was used (See Table Section).
Cabbage seedlings grown in 3-inch pots, with 2-3 small (3-5 cm) true leaves, were used as test substrate. The seedlings were infested with 20-50 GPA (wingless adult and nymph stages) one day prior to chemical application. Four pots with individual seedlings were used for each treatment. Test molecules (2 mg) were dissolved in 2 mL of acetone/methanol (1:1) solvent, forming stock solutions of 1000 ppm test molecule.
The stock solutions were diluted 5× with 0.025% Tween 20 in water to obtain the solution at 200 ppm test molecule. A hand-held aspirator-type sprayer was used for spraying a solution to both sides of […] leaves until runoff. Reference plants (solvent check) were sprayed with the diluent only containing 20% by volume of acetone/methanol (1:1) solvent. Treated plants were held in a holding room for three days at approximately 25° C. and ambient relative humidity (RH) prior to grading. Evaluation was conducted by counting the number of live aphids per plant under a microscope. Percent control was measured using Abbott's correction formula (W. S. Abbott, “A Method of Computing the Effectiveness of an Insecticide” J. Econ. Entomol. 18 (1925), pp. 265-267) as follows. Corrected % Control=100*(X−Y)/X where X=No. of live aphids on solvent check plants and Y=No. of live aphids on treated plants. The results are indicated in the table entitled “Table ABC: Biological Results” (See Table Section).

[4] = system: Yellow Fever Mosquito (Aedes aegypti, AEDSAE); details: about 1 day-old larvae, 96-well plate from 4000 ppm DMSO master, 3 days at room temperature
Procedure, shortened: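 Compound stocks at 4000 ppm in DMSO were diluted with 90:10 water/acetone, and 15 μL aliquots were dispensed into six replicate plates. About 1-day-old larvae in liver-powder water were added per well. Plates were covered and held at room temperature for 3 days before each well was scored for mortality.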

Row | Compound | mortality at 50 µg/cm2 [1] | mortality at 50 µg/cm2 [2] | mortality at 200 ppm [3] | YFM % Control (or Mortality) rating [4]
1 | CN(C(=O)c1cc(NC(=O)[C@H]2[C@H](c3cc(Cl)cc(Cl)c3)C2(Cl)Cl)ccc1Cl)C1CC(F)(F)C1 (relative stereo) [Molecule F32, trans-2-Chloro-5-(2,2-dichloro-3-(3,5-dichlorophenyl)cyclopropanecarboxamido)-N-(3,3-difluorocyclobutyl)-N-methylbenzamide] | 50 to 100% | 50 to 100% | 80 to 100% | A (80-100)
2 | O=C(NC1CSC1)c1cc(NC(=O)[C@H]2[C@H](c3cc(Cl)c(Cl)c(Cl)c3)C2(Cl)Cl)ccc1Cl (relative stereo) [Molecule F17, trans-2-Chloro-5-(2,2-dichloro-3-(3,4,5-trichlorophenyl)cyclopropanecarboxamido)-N-(thietan-3-yl)benzamide] | 50 to 100% | 50 to 100% | 80 to 100% | A (80-100)
3 | O=C(NC1CCC1)c1cc(NC(=O)[C@H]2[C@H](c3ccc(Cl)c(Cl)c3)C2(Cl)Cl)ccc1Cl (relative stereo) [Molecule F41, trans-2-Chloro-N-cyclobutyl-5-(2,2-dichloro-3-(3,4-dichlorophenyl)cyclopropanecarboxamido)benzamide] | 50 to 100% | 50 to 100% | 80 to 100% | A (80-100)
4 | N#CC1(NC(=O)c2cc(NC(=O)[C@H]3[C@H](c4cccc(C(F)(F)F)c4)C3(Cl)Cl)ccc2Cl)CC1 (relative stereo) [Molecule F18, trans-2-Chloro-N-(1-cyanocyclopropyl)-5-(2,2-dichloro-3-(3-(trifluoromethyl)phenyl)cyclopropanecarboxamido)benzamide] | 50 to 100% | 50 to 100% | 80 to 100% | B (More than 0-Less than 80)
5 | O=C(NC1CC(F)(F)C1)c1cc(NC(=O)[C@H]2[C@H](c3ccc(Cl)c(Cl)c3)C2(Cl)Cl)ccc1Cl (relative stereo) [Molecule F9, trans-2-Chloro-5-(2,2-dichloro-3-(3,4-dichlorophenyl)cyclopropanecarboxamido)-N-(3,3-difluorocyclobutyl)benzamide] | 50 to 100% | 50 to 100% | 80 to 100% | A (80-100)
6 | O=C(NC1CC1)c1cccc(NC(=O)[C@H]2[C@H](c3cc(Cl)cc(Cl)c3)C2(Cl)Cl)c1 (relative stereo) [Molecule F3, trans-N-Cyclopropyl-3-(2,2-dichloro-3-(3,5-dichlorophenyl)cyclopropanecarboxamido)benzamide] | 50 to 100% | 50 to 100% | 0 to 80% | A (80-100)
7 | CN(C(=O)c1cc(NC(=O)[C@H]2[C@H](c3cc(Cl)c(Cl)c(Cl)c3)C2(Cl)Cl)ccc1Cl)C1CC(F)(F)C1 (relative stereo) [Molecule F34, trans-2-Chloro-5-(2,2-dichloro-3-(3,4,5-trichlorophenyl)cyclopropanecarboxamido)-N-(3,3-difluorocyclobutyl)-N-methylbenzamide] | 50 to 100% | 50 to 100% | 0 to 80% | A (80-100)
8 | N#CC1(NC(=O)c2cc(NC(=O)[C@H]3[C@H](c4cc(Cl)c(Cl)c(Cl)c4)C3(Cl)Cl)ccc2Cl)CCC1 (relative stereo) [Molecule F13, trans-2-Chloro-N-(1-cyanocyclobutyl)-5-(2,2-dichloro-3-(3,4,5-trichlorophenyl)cyclopropanecarboxamido)benzamide] | 50 to 100% | 50 to 100% | 0 to 80% | A (80-100)
9 | O=C(NC1CCOCC1)c1cc(NC(=O)[C@H]2[C@H](c3cc(Cl)cc(Cl)c3)C2(Cl)Cl)ccc1Cl (relative stereo) [Molecule F55, trans-2-chloro-5-(2,2-dichloro-3-(3,5-dichlorophenyl)cyclopropanecarboxamido)-N-(tetrahydro-2H-pyran-4-yl)benzamide] | 50 to 100% | 50 to 100% | 80 to 100% | –
10 | N#CC1(NC(=O)c2cc(NC(=O)[C@H]3[C@H](c4cc(Cl)cc(Cl)c4)C3(Cl)Cl)ccc2Cl)CCC1 (relative stereo) [Molecule F12, trans-2-Chloro-N-(1-cyanocyclobutyl)-5-(2,2-dichloro-3-(3,5-dichlorophenyl)cyclopropanecarboxamido)benzamide] | 50 to 100% | 50 to 100% | 0 to 80% | A (80-100)
11 | COC(=O)C1(NC(=O)c2cc(NC(=O)[C@H]3[C@H](c4cc(Cl)cc(Cl)c4)C3(Cl)Cl)ccc2Cl)CCCC1 (relative stereo) [PF33, trans-Methyl 1-(2-chloro-5-(2,2-dichloro-3-(3,5-dichlorophenyl)cyclopropane-carboxamido)benzamido)cyclopentanecarboxylate] | 0 to 50% | 50 to 100% | – | D (No activity noticed in this bioassay)
12 | N#CC1(NC(=O)c2cc(NC(=O)[C@H]3[C@H](c4ccc(C(F)F)cc4)C3(Cl)Cl)ccc2Cl)CC1 (relative stereo) [Molecule F92, trans-2-Chloro-N-(1-cyanocyclopropyl)-5-(2,2-dichloro-3-(4-(difluoromethyl)-phenyl)cyclopropane-1-carboxamido)benzamide] | 50 to 100% | 50 to 100% | – | A (80-100)
13 | N#CC1(NC(=O)c2cc(NC(=O)[C@H]3[C@H](c4cc(Cl)cc(Br)c4)C3(Cl)Cl)ccc2Cl)CC1 (relative stereo) [PF4, trans-5-(3-(3-Bromo-5-chlorophenyl)-2,2-dichlorocyclopropane-1-carboxamido)-2-chloro-N-(1-cyanocyclopropyl)benzamide] | 50 to 100% | 50 to 100% | – | A (80-100)
14 | O=C(NN1CCN(CC(F)(F)F)C1=O)c1cc(NC(=O)C2C(c3cc(Cl)cc(Cl)c3)C2(Cl)Cl)ccc1Cl (stereo not drawn) [PF44, trans-2-Chloro-5-(2,2-dichloro-3-(3,5-dichlorophenyl)cyclopropane-1-carbox-amido)-N-(2-oxo-3-(2,2,2-trifluoroethyl)imidazolidin-1-yl)benzamide] | 50 to 100% | 50 to 100% | – | A (80-100)
15 | O=C(NC1CC(F)(F)C1)c1cc(NC(=O)[C@@H]2[C@@H](c3cc(Cl)cc(Cl)c3)C2(Cl)Cl)ccc1Cl [Molecule F74, 2-Chloro-5-((1S,3S)-2,2-dichloro-3-(3,5-dichlorophenyl)cyclopropane-1-carboxamido)-N-(3,3-difluorocyclobutyl)benzamide] | 50 to 100% | 50 to 100% | – | A (80-100)
16 | CC1(NC(=O)c2cc(NC(=O)[C@H]3[C@H](c4cc(Cl)cc(Cl)c4)C3(Cl)Cl)ccc2Cl)CC1 (relative stereo) [PF32, trans-2-Chloro-5-(2,2-dichloro-3-(3,5-dichloro-phenyl)cyclopropanecarboxamido)-N-(1-methylcyclopropyl)benzamide] | 50 to 100% | 50 to 100% | – | A (80-100)
17 | N#CC1(NC(=O)c2cc(NC(=O)[C@H]3[C@H](c4cc(F)cc(Cl)c4)C3(Cl)Cl)ccc2Cl)CC1 (relative stereo) [PF1, trans-2-Chloro-N-(1-cyanocyclopropyl)-5-(2,2-dichloro-3-(3-chloro-5-fluorophenyl)cyclopropane-1-carboxamido)benzamide] | 50 to 100% | 50 to 100% | – | A (80-100)
18 | O=C(NC1CCC1)c1cc(NC(=O)[C@H]2[C@H](c3cc(Cl)cc(Cl)c3)C2(Cl)Cl)ccc1Cl (relative stereo) [Molecule F40, trans-2-Chloro-N-cyclobutyl-5-(2,2-dichloro-3-(3,5-dichlorophenyl)cyclopropanecarboxamido)benzamide] | 50 to 100% | 50 to 100% | – | A (80-100)

Reference: patent US9795139B2, “Molecules having pesticidal utility, and intermediates, compositions, and processes, related thereto” (priority 2015, dated 2017)
